Results published in ChEMBL document CHEMBL1144406 (J Med Chem, 2005).

What was measured:
[1] = molecular target: T1, Prostaglandin D2 receptor (Homo sapiens, UniProt Q13258); assay: Inhibition of [3H]-PGD-2 binding to human Prostaglandin D2 receptor
T1 sequence (Q13258 whole entry): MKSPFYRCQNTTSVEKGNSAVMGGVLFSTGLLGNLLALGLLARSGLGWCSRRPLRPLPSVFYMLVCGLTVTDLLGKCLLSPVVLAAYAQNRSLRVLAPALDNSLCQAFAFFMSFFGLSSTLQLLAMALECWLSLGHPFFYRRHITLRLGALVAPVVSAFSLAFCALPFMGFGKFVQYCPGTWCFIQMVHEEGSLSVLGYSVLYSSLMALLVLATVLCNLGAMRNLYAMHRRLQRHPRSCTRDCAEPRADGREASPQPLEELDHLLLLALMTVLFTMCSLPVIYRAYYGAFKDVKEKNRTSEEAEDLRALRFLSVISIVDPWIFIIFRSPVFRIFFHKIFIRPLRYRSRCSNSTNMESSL

Thromboxane A2 receptor [2] = molecular target: T2, Thromboxane A2 receptor (Homo sapiens, UniProt P21731); assay: Inhibition of [3H]SQ-29,548 binding to human Thromboxane A2 receptor
T2 sequence (P21731 whole entry): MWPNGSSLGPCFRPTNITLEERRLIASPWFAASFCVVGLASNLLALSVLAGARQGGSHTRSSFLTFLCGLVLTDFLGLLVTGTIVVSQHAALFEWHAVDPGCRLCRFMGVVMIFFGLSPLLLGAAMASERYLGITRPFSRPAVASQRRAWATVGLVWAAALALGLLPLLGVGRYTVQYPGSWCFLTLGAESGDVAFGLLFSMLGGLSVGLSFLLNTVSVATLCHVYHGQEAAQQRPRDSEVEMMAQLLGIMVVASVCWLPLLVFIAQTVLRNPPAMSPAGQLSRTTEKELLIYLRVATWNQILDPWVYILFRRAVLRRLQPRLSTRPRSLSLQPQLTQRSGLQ

[3] = molecular target: T3, Prostaglandin D2 receptor 2 (Homo sapiens, UniProt Q9Y5Y4); assay: Inhibition of [3H]PGD-2 binding to human chemoattractant receptor-homologous molecule expressed on Th2 cells (CRTH2); type: cell-based
T3 sequence (Q9Y5Y4 whole entry): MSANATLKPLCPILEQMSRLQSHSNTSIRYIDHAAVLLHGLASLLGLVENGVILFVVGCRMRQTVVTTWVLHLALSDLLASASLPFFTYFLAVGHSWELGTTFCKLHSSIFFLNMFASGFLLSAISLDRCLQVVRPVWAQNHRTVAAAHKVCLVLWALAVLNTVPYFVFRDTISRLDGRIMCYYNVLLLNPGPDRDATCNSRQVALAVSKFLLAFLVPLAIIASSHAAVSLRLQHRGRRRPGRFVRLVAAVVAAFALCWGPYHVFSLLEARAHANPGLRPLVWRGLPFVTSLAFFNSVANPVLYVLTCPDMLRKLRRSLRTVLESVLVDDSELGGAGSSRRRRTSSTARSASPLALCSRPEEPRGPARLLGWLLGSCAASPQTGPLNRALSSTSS

[4] = molecular target: T1, Prostaglandin D2 receptor; assay: Inhibition of PGD2-induced inositol phosphate formation at human Prostaglandin D2 receptor; type: functional
[5] = molecular target: T3, Prostaglandin D2 receptor 2; assay: Inhibition of beta-arrestin translocation at human chemoattractant receptor-homologous molecule expressed on TH2 cells in BRET assay; type: functional, cell-based
[6] = molecular target: T3, Prostaglandin D2 receptor 2; assay: Inhibition of PGD2-induced inositol phosphate formation at human chemoattractant receptor-homologous molecule expressed on TH2 cells; type: functional, cell-based
Thromboxane A2 receptor [7] = molecular target: T2, Thromboxane A2 receptor; assay: Inhibition of U-46,619-induced inositol phosphate accumulation at human Thromboxane A2 receptor; type: functional
Thromboxane A2 receptor [8] = molecular target: T2, Thromboxane A2 receptor; assay: Inhibition of beta-arrestin translocation at human Thromboxane A2 receptor in BRET assay; type: functional

Ki [1] [nM] | Ki (Thromboxane A2 receptor [2]) [nM] | Ki [3] [nM] | IC50 [4] [nM] | IC50 [5] [nM] | IC50 [6] [nM] | IC50 (Thromboxane A2 receptor [7]) [nM] | IC50 (Thromboxane A2 receptor [8]) [nM] | Compound
6100 | 3000 | 1.9 | > 10000 | 15 | 26 | 4600 | – | CN([C@@H]1CCc2c(c3ccccc3n2CCC(=O)O)C1)S(=O)(=O)c1ccc(F)cc1
> 10000 | 4.5 | 4.3 | > 10000 | 28 | 29 | 9.6 | 8.4 | O=C(O)CCn1c2c(c3ccccc31)C[C@H](NS(=O)(=O)c1ccc(F)cc1)CC2 [RAMATROBAN]
5300 | 540 | 0.51 | > 10000 | 3.8 | 3.8 | 1700 | – | O=C(O)Cn1c2c(c3ccccc31)C[C@H](NS(=O)(=O)c1ccc(F)cc1)CC2
